Results: ChEMBL document CHEMBL1136072, “Structural features of piperazinyl-linked ciprofloxacin dimers required for activity against drug-resistant strains of Staphylococcus aureus” (2003)

Assays:
Type in all cases: functional
[1] = system: Staphylococcus aureus; test: Minimum inhibitory concentration required against Staphylococcus aureus MRSA 494, methicillin resistant SA isolate
[2] = system: Staphylococcus aureus; test: Minimum inhibitory concentration required against Staphylococcus aureus GISA 992, vancomycin-insensitive SA.
[3] = system: Staphylococcus aureus; test: Minimum inhibitory concentration required against Staphylococcus aureus SA 1199-3, laboratory-derived mutant of SA 1199 that inducibly overexpresses norA, no gyrase or topoisomerase IV mutations
[4] = system: Staphylococcus aureus; test: Minimum inhibitory concentration required against Staphylococcus aureus SA 1199B, constitutively overexpresses norA and harbors a topoisomerase IV A subunit substitution (A116E); set-up: unit not given beside the values
[5] = system: Staphylococcus aureus; test: Minimum inhibitory concentration required against Staphylococcus aureus SA-1199, wild-type isolate

Row | SMILES | MIC [1] | MIC [2] | MIC [3] | MIC [4] | MIC [5]
1 | O=C(O)c1cn(C2CC2)c2cc(N3CCN(Cc4ccc(CN5CCN(c6cc7c(cc6F)c(=O)ccn7C6CC6)CC5)cc4)CC3)c(F)cc2c1=O | 1 | >16 | 0.5 | 0.5 | 0.25
2 | O=C(O)c1cn(C2CC2)c2cc(N3CCN(Cc4ccc(CN5CCNCC5)cc4)CC3)c(F)cc2c1=O | 0.25 | >16 |  | 1 | 0.5
3 | CCn1cc(C(=O)O)c(=O)c2cnc(N3CCNCC3)nc21 [PIPEMIDIC ACID] |  | >16 |  |  | >16
4 | CN1CCN(c2cc3c(cc2F)c(=O)c(C(=O)O)cn3C2CC2)CC1 | 0.5 | 32 | 1 | 8 | 0.125
5 | CN1CCN(c2cc3c(cc2F)c(=O)ccn3C2CC2)CC1 | >16 | >16 | >16 | >16 | >16
6 | O=C(O)c1cn(C2CC2)c2cc(N3CCN(/C=C/CN4CCN(c5ccccc5F)CC4)CC3)c(F)cc2c1=O |  | >16 |  |  | 0.5
7 | CCn1cc(C(=O)O)c(=O)c2cnc(N3CCN(Cc4ccc(CN5CCN(c6cc7c(cc6F)c(=O)c(C(=O)O)cn7C6CC6)CC5)cc4)CC3)nc21 | 0.125 | 2 |  |  | <0.03
8 | O=C(O)c1cn(C2CC2)c2cc(N3CCN(/C=C/CN4CCNCC4)CC3)c(F)cc2c1=O | 2 | >16 | 2 | 2 | 1
9 | O=C(O)c1cn(C2CC2)c2cc(N3CCN(Cc4ccc(CN5CCN(c6cc7c(cc6F)c(=O)c(C(=O)O)cn7C6CC6)CC5)cc4)CC3)c(F)cc2c1=O |  | 4 |  |  | 0.125
10 | O=C(O)c1cn(C2CC2)c2cc(N3CCN(Cc4ccc(CN5CCN(c6ccccc6F)CC5)cc4)CC3)c(F)cc2c1=O |  | 16 |  |  | 0.5
11 | O=C(O)c1cn(C2CC2)c2cc(N3CCN(/C=C/CN4CCN(c5cc6c(cc5F)c(=O)c(C(=O)O)cn6C5CC5)CC4)CC3)c(F)cc2c1=O | 0.125 | >16 | 0.06 |  | 0.03
